{"source": "paper PMC9298194", "about": "“Clinical Pharmacokinetics of Daprodustat: Results of an Absorption, Distribution, and Excretion Study With Intravenous Microtracer and Concomitant Oral Doses for Bioavailability Determination” (Clinical Pharmacology in Drug Development, 2021)", "key": {"[1]": {"test": "Blood and plasma total radioactivity pharmacokinetics after [14C]-GSK1278863", "assay_type": "in vivo, human", "conditions": "for tmax, total radioactivity: median (range)", "experimental": "As per standard practice for administration of radiolabeled drug, the IV and oral dosing solutions were analyzed for daprodustat via assessment of the radioactivity and through application of the predetermined specific activity. Whole blood samples were collected for measurement of each of the following: blood total radioactivity in period 2 and plasma total radioactivity in period 1, plasma concentrations of daprodustat, and the 6 predominant circulating metabolites in periods 1 and 2. Blood samples were collected at 1, 3, and 6 hours after dosing for blood assessments. Blood samples were collected for plasma assessments before dosing and at 0.50, 1, 1.25, 1.5, 2, 3, 4, 6, 8, 10, 12, 24, 36, 48, 72, 96, 120, and 144 hours after dosing.\nWhole blood samples for unlabeled assays were collected into K3 ethylenediaminetetraacetic acid tubes, gently inverted several times and immediately placed on ice water. Samples were then centrifuged at 1500 × g for 15 minutes; the supernatant plasma was transferred to Nunc tubes and stored at −20°C before shipment. Samples for unlabeled daprodustat and specific assay metabolite measurements were shipped frozen to PPD Laboratories (Middleton, Wisconsin). Samples for radioactivity measurements were shipped frozen to either GSK Research and Development (Ware, Hertfordshire, UK; period 1) or Covance (period 2). Some period 2 plasma samples were subsequently analyzed by accelerator mass spectrometry (AMS) at Ware (UK) after being not quantifiable by LSC analysis.\nHuman urine, feces, and blood samples from treatment period 2 were analyzed by Covance using LSC. The LLQ for urine using LSC was 5.63 ng Eq/mL, using a 1000 μL aliquot of human urine. The LLQ for blood using LSC was 11.6 ng Eq/mL, using a 400 μL aliquot of human blood. The LLQ for feces using LSC was 25.3 ng Eq/mL, using a 0.2‐ to 0.4‐g aliquot of human feces. Treatment period 2 plasma samples that were not quantifiable following LSC analysis at Covance were subsequently reanalyzed for total radioactivity by AMS at GSK. The LLQ using AMS was 15.8 pg Eq/mL, using a 50 μL aliquot of human plasma.\nPlasma daprodustat and [^14C]‐GSK1278863 plasma and blood total radioactivity concentration‐time data were analyzed by noncompartmental methods with WinNonlin Version 6.3 or above (Certara, Princeton, New Jersey). Calculations were based on the actual sampling times recorded during the study. From the plasma concentration‐time data, the following PK parameters were determined for daprodustat, its metabolites, [^14C]‐GSK1278863, and total radioactivity, as the data permitted: maximum observed plasma concentration (Cmax), time to Cmax (tmax), area under the plasma concentration–time curve (AUC) from time 0 to the last measurable concentration (AUC0‐t), AUC from time 0 extrapolated to infinity (AUC0–inf), and apparent terminal phase half‐life (t½), following oral and IV dosing. Additionally, daprodustat volume of distribution at steady state (Vss) and the total systemic clearance (CL) were derived following IV dosing, and daprodustat absolute bioavailability (F) was determined from the oral tablet and IV plasma PK data from treatment period 1 with the following equation: F=AUCpo/AUCIV×doseIV/dosepo\nTo assess relative exposure levels between parent daprodustat and the measured metabolites, the ratio of parent daprodustat/total radioactivity was calculated for the plasma PK parameters following IV and oral administration of [^14C]‐GSK1278863: Cmax, AUC0‐t, and AUC0‐inf."}, "[2]": {"conditions": "coadministered with gemfibrozil; cited from earlier work"}, "[3]": {"conditions": "39‐week study in monkeys; cited from earlier work"}, "[4]": {"conditions": "human; ref internal GSK reports; cited from earlier work"}, "[5]": {"conditions": "IV infusion, plasma, mean (SD), n = 5"}, "[6]": {"conditions": "oral solution, plasma, mean (SD)"}}, "note": "Where “and” joins values, the source holds several entries; their conditions need not be identical. Equal entries are not always repeated. Marks after values point to notes of the source that are not given here."}
{"smiles": "O=C(O)CNC(=O)C1C(=O)N(C2CCCCC2)C(=O)N(C2CCCCC2)C1=O", "note": "[Daprodustat]", "values": [{"measurement": "AUC0‐inf ratio of plasma daprodustat to plasma total radioactivity", "setting": "[1]; IV administration", "result": 0.40}, {"measurement": "AUC0‐t ratio of plasma daprodustat to plasma total radioactivity", "setting": "[1]; IV administration", "result": 0.40}, {"measurement": "Cmax ratio of plasma daprodustat to plasma total radioactivity", "setting": "[1]; IV administration", "result": 0.68}, {"measurement": "AUC0‐t, total radioactivity", "setting": "[1]; IV infusion, plasma, mean (SD)", "result": "6.62 (1.20) ng Eq • h/mL"}, {"measurement": "Cmax, total radioactivity", "setting": "[1]; IV infusion, plasma, mean (SD)", "result": "3.04 (0.49) ng Eq/mL"}, {"measurement": "AUC0‐inf, total radioactivity", "setting": "[1]; [5]", "result": "6.79 (1.31) ng Eq • h/mL"}, {"measurement": "CL, total radioactivity", "setting": "[1]; [5]", "result": "7.59 (1.50) μg/[ng Eq • h/mL]"}, {"measurement": "Vss, total radioactivity", "setting": "[1]; [5]", "result": "36.3 (19.6) μg/[ng Eq/mL]"}, {"measurement": "t½, total radioactivity", "setting": "[1]; [5]", "result": "8.88 (6.58) h"}, {"measurement": "tmax, total radioactivity", "setting": "[1]; IV infusion, plasma", "result": 0.98, "unit": "h"}, {"measurement": "tmax, total radioactivity", "setting": "[1]; IV infusion, plasma, listed as [^14C]‐GSK1278863", "result": "0.983 (0.983−1.25) h"}, {"measurement": "parent daprodustat as share of total circulating radioactivity in plasma", "setting": "[1]; following IV and oral solution administration, AUC ratio", "result": "Approximately 40%"}, {"measurement": "blood:plasma ratio of total radioactivity", "setting": "[1]; from Cmax in blood and plasma after oral solution", "result": 0.46}, {"measurement": "AUC0‐inf ratio of plasma daprodustat to plasma total radioactivity", "setting": "[1]; oral solution administration", "result": 0.42}, {"measurement": "AUC0‐t ratio of plasma daprodustat to plasma total radioactivity", "setting": "[1]; oral solution administration", "result": 0.43}, {"measurement": "Cmax ratio of plasma daprodustat to plasma total radioactivity", "setting": "[1]; oral solution administration", "result": 0.87}, {"measurement": "Cmax, total radioactivity", "setting": "[1]; oral solution, blood, mean (SD), listed as [^14C]‐GSK1278863", "result": "302 ng Eq/mL and 302 (95.6) ng Eq/mL"}, {"measurement": "tmax, total radioactivity", "setting": "[1]; oral solution, blood", "result": "1.00 (1.00−3.00) h"}, {"measurement": "AUC0‐t, total radioactivity", "setting": "[1]; oral solution, blood, t = 6 hours, mean (SD)", "result": "835 (154) ^b ng Eq • h/mL"}, {"measurement": "AUC0‐inf, total radioactivity", "setting": "[1]; [6]", "result": "2312 (447) ng Eq • h/mL"}, {"measurement": "AUC0‐t, total radioactivity", "setting": "[1]; [6]", "result": "2239 (441) ng Eq • h/mL"}, {"measurement": "t½, total radioactivity", "setting": "[1]; [6]", "result": "62.4 (9.62) h"}, {"measurement": "Cmax, total radioactivity", "setting": "[1]; oral solution, plasma, mean (SD), listed as [^14C]‐GSK1278863", "result": "654 ng Eq/mL and 654 (219) ng Eq/mL"}, {"measurement": "tmax, total radioactivity", "setting": "[1]; oral solution, plasma", "result": 0.76, "unit": "h"}, {"measurement": "tmax, total radioactivity", "setting": "[1]; oral solution, plasma, listed as [^14C]‐GSK1278863", "result": "0.758 (0.500−3.00) h"}, {"measurement": "increase in the plasma exposure of daprodustat", "setting": "[2]", "result": 18.6, "unit": "fold"}, {"measurement": "doses at which gastric erosions were observed", "setting": "[3]", "result": "≥ 10", "unit": "mg/kg/day"}, {"measurement": "no observed adverse effect level", "setting": "[3]", "result": 3, "unit": "mg/kg/day"}, {"measurement": "blood:plasma ratio", "setting": "[4]", "result": 1.23}]}
